Results published in patent US11306101B2 (Celgene Corporation, priority 2019, dated 2022).

Target: T1, CK1α (Homo sapiens, UniProt P48729+Q96SW2)
T1 construct: expressed in transfected cells
Test: CK1α ePL degradation assay in MDS-L cells
Type: cell-based
Details: MDS-L cells expressing ePL-tagged CK1α; for DC50: concentration giving 50% CK1α degradation vs DMSO control; for Y: lowest measured CK1α level normalized to DMSO control
Description: The following is an example of an assay that can be used to determine the CK1α degradation activity of Isoindolinone Carboxamide Compounds in a cell line, for example, the MDS-L cell line.
Compounds were dispensed by an acoustic dispenser (ATS acoustic transfer system from EDC Biosystems) into a 384-well in a 10 point dose-response curve using 3-fold dilutions starting at 10 μM and going down to 0.0005 μM in DMSO. […] Assay plates were incubated at 37° C. with 5% CO2 for the indicated times. At the different time points, 25 μL of the InCELL Hunter™ Detection Reagent Working Solution (catalog number 96-0002, DiscoverX, Fremont, Calif.) was added to each well and incubated at RT for 30 min protected from light. After 30 min, luminescence was read on a PHERAstar luminometer (BMG LABTECH, Cary, N.C.).
CK1α levels in compound-treated wells were normalized to that of DMSO control and expressed as percent of control (PoC) (y).
The lowest measured CK1α level normalized to DMSO control in response to compound treatment, termed Y value, was used to characterize the compound-mediated CK1α degradation efficiency.

T1 sequence (P48729 whole entry): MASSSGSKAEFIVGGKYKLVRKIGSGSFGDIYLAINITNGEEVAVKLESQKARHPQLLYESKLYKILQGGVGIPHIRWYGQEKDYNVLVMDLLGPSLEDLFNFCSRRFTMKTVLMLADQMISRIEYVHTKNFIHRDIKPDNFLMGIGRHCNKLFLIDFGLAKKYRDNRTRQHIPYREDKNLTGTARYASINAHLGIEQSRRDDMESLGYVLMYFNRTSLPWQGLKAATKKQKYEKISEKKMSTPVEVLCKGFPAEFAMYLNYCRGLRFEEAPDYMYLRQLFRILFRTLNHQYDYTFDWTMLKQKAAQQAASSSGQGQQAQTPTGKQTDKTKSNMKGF
T1 sequence (Q96SW2 whole entry): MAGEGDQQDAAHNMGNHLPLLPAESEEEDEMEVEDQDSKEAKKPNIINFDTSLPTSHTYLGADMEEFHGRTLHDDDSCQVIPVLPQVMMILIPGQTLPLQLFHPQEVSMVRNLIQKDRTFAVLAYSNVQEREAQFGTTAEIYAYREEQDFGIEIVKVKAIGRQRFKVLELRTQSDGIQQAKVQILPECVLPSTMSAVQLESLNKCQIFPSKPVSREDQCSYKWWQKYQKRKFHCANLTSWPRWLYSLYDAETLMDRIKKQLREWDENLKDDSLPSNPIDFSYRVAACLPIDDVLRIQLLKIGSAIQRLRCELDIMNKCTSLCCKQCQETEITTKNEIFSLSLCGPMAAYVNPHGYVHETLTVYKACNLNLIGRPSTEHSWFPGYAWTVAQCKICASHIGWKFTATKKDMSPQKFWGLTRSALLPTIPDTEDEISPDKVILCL
T1 sequence (Q16531 whole entry partner): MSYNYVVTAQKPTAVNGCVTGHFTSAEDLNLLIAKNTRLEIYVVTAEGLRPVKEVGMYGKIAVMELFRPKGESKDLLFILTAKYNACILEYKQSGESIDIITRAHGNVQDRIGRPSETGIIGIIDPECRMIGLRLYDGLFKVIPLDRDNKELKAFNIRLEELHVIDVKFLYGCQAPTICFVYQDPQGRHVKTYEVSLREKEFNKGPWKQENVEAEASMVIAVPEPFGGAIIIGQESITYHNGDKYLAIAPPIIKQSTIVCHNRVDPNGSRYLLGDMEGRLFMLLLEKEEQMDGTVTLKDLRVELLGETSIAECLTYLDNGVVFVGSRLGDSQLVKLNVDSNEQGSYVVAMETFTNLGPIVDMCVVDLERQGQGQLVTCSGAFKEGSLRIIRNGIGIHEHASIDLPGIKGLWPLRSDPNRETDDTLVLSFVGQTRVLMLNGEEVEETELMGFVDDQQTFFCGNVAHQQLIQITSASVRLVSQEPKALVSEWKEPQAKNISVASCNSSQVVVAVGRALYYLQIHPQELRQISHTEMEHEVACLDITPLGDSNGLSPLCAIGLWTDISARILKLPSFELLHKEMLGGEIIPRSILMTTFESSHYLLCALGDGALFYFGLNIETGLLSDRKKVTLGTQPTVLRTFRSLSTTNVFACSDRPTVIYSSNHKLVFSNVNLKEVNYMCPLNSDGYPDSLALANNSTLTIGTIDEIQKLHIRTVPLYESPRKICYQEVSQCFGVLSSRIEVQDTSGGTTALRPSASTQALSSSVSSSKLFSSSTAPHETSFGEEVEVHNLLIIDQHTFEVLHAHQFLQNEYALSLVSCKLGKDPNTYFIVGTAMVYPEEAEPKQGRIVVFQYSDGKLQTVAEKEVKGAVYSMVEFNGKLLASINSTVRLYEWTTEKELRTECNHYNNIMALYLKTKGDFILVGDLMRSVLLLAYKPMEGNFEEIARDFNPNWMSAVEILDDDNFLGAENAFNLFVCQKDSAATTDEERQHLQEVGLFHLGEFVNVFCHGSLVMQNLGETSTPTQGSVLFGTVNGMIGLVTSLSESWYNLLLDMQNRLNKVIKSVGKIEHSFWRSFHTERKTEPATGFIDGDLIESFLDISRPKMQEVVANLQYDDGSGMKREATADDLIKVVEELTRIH

Row | SMILES | DC50 | Y
1 | C[C@]1(O)CC[C@@H]([C@@H](NC(=O)c2ccc3c(c2)CN(C2CCC(=O)NC2=O)C3=O)C(F)(F)F)CC1 (stereo partly drawn) [Example 168, 2-(2,6-dioxopiperidin-3-yl)-1-oxo-N-((R)-2,2,2-trifluoro-1-((1s,4S)-4-hydroxy-4-methylcyclohexyl)ethyl)isoindoline-5-carboxamide] | < 100 nM | * (a Y value (shown as *) of 0<Y≤20%)
2 | C[C@@H](NC(=O)c1ccc2c(c1)CN(C1CCC(=O)NC1=O)C2=O)c1ccccc1C#N (stereo partly drawn) [Example 131, N-((R)-1-(2-cyanophenyl)ethyl)-2-(2,6-dioxopiperidin-3-yl)-1-oxoisoindoline-5-carboxamide] | < 100 nM | ** (a Y value (shown as**) of 20%<Y≤35%)
3 | O=C1CCC(N2Cc3cc(C(=O)N[C@H](c4ccccc4F)C(F)(F)F)c(F)cc3C2=O)C(=O)N1 (stereo partly drawn) [Example 99, 2-(2,6-dioxopiperidin-3-yl)-6-fluoro-1-oxo-N-((R)-2,2,2-trifluoro-1-(2-fluorophenyl)ethyl)isoindoline-5-carboxamide] | 100 to 500 nM | ** (a Y value (shown as**) of 20%<Y≤35%)
4 | C[C@]1(O)CC[C@H]([C@@H](NC(=O)c2ccc3c(c2)CN(C2CCC(=O)NC2=O)C3=O)C(F)(F)F)CC1 (stereo partly drawn) [Example 156, 2-(2,6-dioxopiperidin-3-yl)-1-oxo-N-((R)-2,2,2-trifluoro-1-((1r,4R)-4-hydroxy-4-methylcyclohexyl)ethyl)isoindoline-5-carboxamide] | 100 to 500 nM | * (a Y value (shown as *) of 0<Y≤20%)
5 | C[C@H](NC(=O)c1ccc2c(c1)CN(C1CCC(=O)NC1=O)C2=O)c1ccc(F)cc1Cl (stereo partly drawn) [Example 59, N-((S)-1-(2-chloro-4-fluorophenyl)ethyl)-2-(2,6-dioxopiperidin-3-yl)-1-oxoisoindoline-5-carboxamide] | < 100 nM | * (a Y value (shown as *) of 0<Y≤20%)
6 | O=C1CCC(N2Cc3c(ccc(C(=O)N[C@H](c4ccccc4F)C(F)(F)F)c3F)C2=O)C(=O)N1 (stereo partly drawn) [Example 100, 2-(2,6-dioxopiperidin-3-yl)-4-fluoro-1-oxo-N-((R)-2,2,2-trifluoro-1-(2-fluorophenyl)ethyl)isoindoline-5-carboxamide] | 100 to 500 nM | * (a Y value (shown as *) of 0<Y≤20%)
7 | O=C1CCC(N2Cc3cc(C(=O)N[C@H](c4ccc(N5CCOCC5)cc4)C(F)(F)F)ccc3C2=O)C(=O)N1 (stereo partly drawn) [Example 204, 2-(2,6-dioxopiperidin-3-yl)-1-oxo-N-((R)-2,2,2-trifluoro-1-(4-morpholinophenyl)ethyl)isoindoline-5-carboxamide] | < 100 nM | * (a Y value (shown as *) of 0<Y≤20%)
8 | O=C1CCC(N2Cc3cc(C(=O)N[C@@H](C(F)(F)F)C4(C(F)(F)F)CC4)ccc3C2=O)C(=O)N1 (stereo partly drawn) [Example 75, 2-(2,6-dioxopiperidin-3-yl)-1-oxo-N-((R)-2,2,2-trifluoro-1-(1-(trifluoromethyl)cyclopropyl)ethyl)isoindoline-5-carboxamide] | 100 to 500 nM | ** (a Y value (shown as**) of 20%<Y≤35%)
9 | O=C1CCC(N2Cc3cc(C(=O)N[C@H](c4ccc(F)cc4)C(F)(F)F)c(F)cc3C2=O)C(=O)N1 (stereo partly drawn) [Example 92, 2-(2,6-dioxopiperidin-3-yl)-6-fluoro-1-oxo-N-((R)-2,2,2-trifluoro-1-(4-fluorophenyl)ethyl)isoindoline-5-carboxamide] | 100 to 500 nM | ** (a Y value (shown as**) of 20%<Y≤35%)
10 | O=C1CCC(N2Cc3cc(C(=O)N[C@H](C4CCCCC4)C(F)(F)F)ccc3C2=O)C(=O)N1 (stereo partly shown) [Example 23] | < 100 nM | * (a Y value (shown as *) of 0<Y≤20%)
11 | CN1CCN(c2ccc([C@@H](NC(=O)c3ccc4c(c3)CN(C3CCC(=O)NC3=O)C4=O)C(F)(F)F)cc2)CC1 (stereo partly drawn) [Example 208, 2-(2,6-dioxopiperidin-3-yl)-1-oxo-N-((R)-2,2,2-trifluoro-1-(4-(4-methylpiperazin-1-yl)phenyl)ethyl)isoindoline-5-carboxamide] | < 100 nM | * (a Y value (shown as *) of 0<Y≤20%)
12 | O=C1CCC(N2Cc3c(ccc(C(=O)N[C@H](c4ccccc4)C(F)(F)F)c3F)C2=O)C(=O)N1 (stereo partly drawn) [Example 89, 2-(2,6-dioxopiperidin-3-yl)-4-fluoro-1-oxo-N-((R)-2,2,2-trifluoro-1-phenylethyl)isoindoline-5-carboxamide] | < 100 nM | ** (a Y value (shown as**) of 20%<Y≤35%)
13 | O=C1CCC(N2Cc3c(ccc(C(=O)N[C@H](C4CCCC4)C(F)(F)F)c3F)C2=O)C(=O)N1 (stereo partly drawn) [Example 137, N-((R)-1-cyclopentyl-2,2,2-trifluoroethyl)-2-(2,6-dioxopiperidin-3-yl)-4-fluoro-1-oxoisoindoline-5-carboxamide] | < 100 nM | * (a Y value (shown as *) of 0<Y≤20%)
14 | CC(C)[C@H](NC(=O)c1ccc2c(c1)CN(C1CCC(=O)NC1=O)C2=O)c1ccccc1 (stereo partly drawn) [Example 154, 2-(2,6-dioxopiperidin-3-yl)-N-((S)-2-methyl-1-phenylpropyl)-1-oxoisoindoline-5-carboxamide] | < 100 nM | * (a Y value (shown as *) of 0<Y≤20%)
15 | C[C@@H](NC(=O)c1ccc2c(c1)CN(C1CCC(=O)NC1=O)C2=O)C1CCCCC1 (stereo partly shown) [Example 4] | < 100 nM | * (a Y value (shown as *) of 0<Y≤20%)
16 | O=C1CCC(N2Cc3c(ccc(C(=O)N[C@@H](C(F)(F)F)C45CC(C4)C5)c3F)C2=O)C(=O)N1 (stereo partly drawn) [Example 138, N-((R)-1-(bicyclo[1.1.1]pentan-1-yl)-2,2,2-trifluoroethyl)-2-(2,6-dioxopiperidin-3-yl)-4-fluoro-1-oxoisoindoline-5-carboxamide] | < 100 nM | * (a Y value (shown as *) of 0<Y≤20%)
17 | CC1([C@@H](NC(=O)c2ccc3c(c2)CN(C2CCC(=O)NC2=O)C3=O)C(F)(F)F)COC1 (stereo partly drawn) [Example 94, 2-(2,6-dioxopiperidin-3-yl)-1-oxo-N-((R)-2,2,2-trifluoro-1-(3-methyloxetan-3-yl)ethyl)isoindoline-5-carboxamide] | 100 to 500 nM | ** (a Y value (shown as**) of 20%<Y≤35%)
18 | C[C@H](NC(=O)c1ccc2c(c1)CN(C1CCC(=O)NC1=O)C2=O)C(C)(C)C (stereo partly shown) [Example 30] | 500 to 1000 nM | ** (a Y value (shown as**) of 20%<Y≤35%)
19 | O=C1CCC(N2Cc3cc(C(=O)N[C@H](c4ccc(Cl)cc4)C(F)(F)F)ccc3C2=O)C(=O)N1 (stereo partly drawn) [Example 42, N-((R)-1-(4-chlorophenyl)-2,2,2-trifluoroethyl)-2-(2,6-dioxopiperidin-3-yl)-1-oxoisoindoline-5-carboxamide] | < 100 nM | * (a Y value (shown as *) of 0<Y≤20%)
20 | CN(C)Cc1cnc([C@@H](NC(=O)c2ccc3c(c2)CN(C2CCC(=O)NC2=O)C3=O)C(F)(F)F)c(Cl)c1 (stereo partly drawn) [Example 202, N-((R)-1-(3-chloro-5-((dimethylamino)methyl)pyridin-2-yl)-2,2,2-trifluoroethyl)-2-(2,6-dioxopiperidin-3-yl)-1-oxoisoindoline-5-carboxamide] | < 100 nM | * (a Y value (shown as *) of 0<Y≤20%)
21 | Cc1cccc([C@@H](NC(=O)c2ccc3c(c2F)CN(C2CCC(=O)NC2=O)C3=O)C(F)(F)F)c1 (stereo partly drawn) [Example 134, 2-(2,6-dioxopiperidin-3-yl)-4-fluoro-1-oxo-N-((R)-2,2,2-trifluoro-1-m-tolylethyl)isoindoline-5-carboxamide] | < 100 nM | ** (a Y value (shown as**) of 20%<Y≤35%)
22 | O=C1CCC(N2Cc3cc(C(=O)N[C@H](c4ccc(F)c(F)c4)C(F)(F)F)ccc3C2=O)C(=O)N1 (stereo partly drawn) [Example 73, N-((R)-1-(3,4-difluorophenyl)-2,2,2-trifluoroethyl)-2-(2,6-dioxopiperidin-3-yl)-1-oxoisoindoline-5-carboxamide] | < 100 nM | * (a Y value (shown as *) of 0<Y≤20%)
23 | O=C1CCC(N2Cc3cc(C(=O)N[C@H](C4CCC5(CCC5)CC4)C(F)(F)F)ccc3C2=O)C(=O)N1 (stereo partly drawn) [Example 53, 2-(2,6-dioxopiperidin-3-yl)-1-oxo-N-((1R)-2,2,2-trifluoro-1-(spiro[3.5]nonan-7-yl)ethyl)isoindoline-5-carboxamide] | < 100 nM | * (a Y value (shown as *) of 0<Y≤20%)
24 | O=C1CCC(N2Cc3cc(C(=O)N[C@H](c4cccnc4)C(F)(F)F)ccc3C2=O)C(=O)N1 (stereo partly drawn) [Example 54, 2-(2,6-dioxopiperidin-3-yl)-1-oxo-N-((R)-2,2,2-trifluoro-1-(pyridin-3-yl)ethyl)isoindoline-5-carboxamide] | 100 to 500 nM | ** (a Y value (shown as**) of 20%<Y≤35%)
25 | O=C1CCC(N2Cc3cc(C(=O)N[C@@H](CC(F)(F)F)c4cccc(F)c4)ccc3C2=O)C(=O)N1 (stereo partly drawn) [Example 162, 2-(2,6-dioxopiperidin-3-yl)-1-oxo-N-((S)-3,3,3-trifluoro-1-(3-fluorophenyl)propyl)isoindoline-5-carboxamide] | 100 to 500 nM | ** (a Y value (shown as**) of 20%<Y≤35%)
26 | O=C1CCC(N2Cc3cc(C(=O)N[C@H](c4ccc(F)cn4)C(F)(F)F)ccc3C2=O)C(=O)N1 (stereo partly drawn) [Example 76, 2-(2,6-dioxopiperidin-3-yl)-1-oxo-N-((R)-2,2,2-trifluoro-1-(5-fluoropyridin-2-yl)ethyl)isoindoline-5-carboxamide] | < 100 nM | ** (a Y value (shown as**) of 20%<Y≤35%)
